In US12168008B2, “Oxabicycloheptanes for modulation of immune response” (LIXTE BIOTECHNOLOGY, INC., priority 2016, dated 2024):

How the values were obtained:
CD4/8 effector cells = experiment: T cell subsets in naive mice (FIG. 13-14); type: in vivo, mouse
Protocol: FIG. 13A. […] Low dose of LB treatment in vivo induced more CD8 (left) and CD4 (right) effector T cells in lymph node. 5 mice per group. Control—PBS, Low dose—0.16 mg/kg, Medium dose—0.32 mg/kg.

PP2A = PP2A phosphatase assay in activated T cells; type: cell-based, mouse; conditions: 3 hours after stimulation with CD3 and CD28; greater effect in CD8
Protocol: LB-100 inhibits PP2A activity and enhances mTORC1 activation: PP2A enzymatic activity of isolated CD4 and CD8 cells from mice splenocytes were measured 3 hours after in vitro stimulation with plated CD3 and soluble CD28.
PP2A phosphatase assay—Mouse CD4+ and CD8+ T cells were isolated with CD4 and CD8 isolation kit (StemCell) respectively. Cells were activated using immobilized anti-CD3 (10 ug/ml) and soluble anti-CD28 (2 ug/ml) for three hour. PP2A activity was then evaluated after immunoprecipitation using a malachite green phosphatase assay kit as per the manufacturer's instructions (EMD Millipore).

mouse B16 melanoma = experiment: B16 melanoma tumor-bearing mice (FIG. 12, 17-19); type: in vivo
Protocol: FIG. 12. […] Treatment was started on the same day of tumor implantation. Control—PBS, Low dose—0.16 mg/kg, Medium dose—0.32 mg/kg.
FIG. 17A. CD8+CD44+ effector T cells are increased with PP2A inhibitor LB-100 treatment. Percentage of CD8+CD44+T effector cells population in tumor draining lymph node from B16 tumor bearing mice treated with LB-100 or PBS. 5 mice per group.

[1] = tested on: tumor infiltrating lymphocytes; experiment: Flow cytometry of tumor infiltrating lymphocytes, spleen and draining lymph node in CT26-bearing mice; type: in vivo, mouse
Protocol: The treatment effect was assessed on tumor infiltrating lymphocytes (FIGS. 23A-B). CT26 tumor-bearing mice were treated with LB-100 and/or anti-PD-1 antibodies as above. After 12 days of treatment, tumors were analyzed by FACS. […] In addition, given the known importance of PP2A in Treg, the effect of LB-100 and/or anti-PD-1 treatment was examined on the amount of Tregs present in the tumor. […] This effect is similar in degree to the effect on Tregs depletion by anti-PD-1 or the combination.
Enhanced activation of lymphocytes with combination treatment: To address the cellular mechanism mediating tumor rejection by the LB-100/aPD-1 combination, the status of the immune system in the secondary lymphoid organs and in the tumor were examined. Mice were implanted with CT26 tumors and treated with LB-100 and/or aPD-1 as described above. On day 3, after two treatments, the spleens, tumor draining lymph nodes (dLN) and tumors were harvested and analyzed by flow cytometry (FIG. 26-27). In the secondary lymphoid tissue, a greater activation of CD8+ T cells in mice treated with the combination regimen compared to controls was observed, as indicated by greater frequency of CD44+CD62L-CD8+ T cells (FIG. 26A-C). […] There was no difference in frequency of CD44+CD62L− subset in CD4+ T cells in both the spleen and dLN (FIGS. 28A and 29A). Immune check point markers, including expression of PD-1, CTLA4, TIM3 and Ox40 on CD8+ and CD4+ T cells were examined in the tumor draining lymph node and spleen (FIGS. 28 and 29).
Isolation of TILs—Mice were injected in the right thoracic flank with 0.5×10^6 CT26 cells and treated as above after tumors reached between 50-100 mm^3. After 2 treatments, mice were sacrificed and tumors excised. Tumors were subjected to mechanical disruption using a GentleMACS Dissociator (Miltenyi Biotec) in presence of enzymatic digestion using Tumor Dissociation Kit (Miltenyi Biotec). […] Cells were analyzed by flow cytometry (LSRII; BD Bioscience). […]

B16F10 cells = experiment: B16F10 melanoma tumor prevention model; type: in vivo, mouse; conditions: day 15 after tumor implantation
Protocol: LB-100 and aPD-1 enhance anti-tumor activity in B16 melanoma without histologic evidence of autoimmunity: It was next determined whether LB-100/aPD-1 combination was effective against other aPD-1 resistant tumor. In a tumor prevention model, 6-8 weeks old C57BL/6 mice were randomized into four treatment groups: PBS, LB-100, aPD-1 and combination. B16F10 cells (2.5×10^5) were inoculated 2 days after initiation of treatment subcutaneously in the right thoracic flank. Treatments were administered every two days following survival (FIG. 34A). By day 15 after tumor implantation, there was no difference between control and the single agent arms.
Syngeneic tumor models—Mice were maintained and experiments were conducted with the approval of the NINDS Animal Use and Care Committees. For CT26 tumors: BALB/c (6-8 wk old) were purchased from Charles River Laboratory. CT26 cells (0.5×10^6) were injected into the right flank subcutaneously. […] Treatments were given every 2 days for 30 days. […]

## CN1CCN(C(=O)C2C(C(=O)O)[C@H]3CC[C@@H]2O3)CC1 (stereo partly drawn) [LB-100]
CD4/8 effector cells; low dose
  PD-1 expressing CD8+ T cells in blood: reduced PD-1 expressing CD8+ T cells in blood
CD4/8 effector cells; low dose 0.16 mg/kg
  CD4/8 effector cells in lymph node of naïve mice: increased CD4/8 effector cells
CD4/8 effector cells; medium dose
  PD-1 expressing CD8+ T cells in spleen: reduced PD-1 expressing CD8+ T cells in spleen
PP2A
  PP2A enzymatic activity in CD4 and CD8 cells: dose dependent decrease
Mouse B16 melanoma; every two days for 8 doses from day of implantation, 0.16 and 0.32 mg/kg
  B16 melanoma tumor growth: reduced mouse B16 melanoma tumor growth significantly
Mouse B16 melanoma; vs PBS, 5 mice per group
  CD8+CD44+ effector T cells in tumor draining lymph node: increased
  CD44+CD62L− CD4 effector T cells in lymph node: Increased
  CD44+CD62L− CD8 effector T cells in lymph node: Increased
[1]; after 12 days of treatment, control 14.7
  Tregs in the tumor: 2.1%
[1]; day 3, after two treatments, control 13.0
  CD44+CD62L-CD8+ T cells in the spleen: 16.6%
[1]; mouse, in vivo
  PD-1 expression in CD4+ and CD8+ TILs: did not further alter PD-1 expression
B16F10 cells
  tumor size, single agent arms vs control: no difference
